This experiment relates to T1, protocatechuate 3,4-dioxygenase (3,4-POD).
T1 construct: gene pcaG; 700 kDa; (alpha-beta)n, n = 2-12, non-heme Fe(III); free enzyme
As to the kind of experiment: disappearance of […],4-DHBA at […] nm; non-linear Michaelis-Menten fit. The class given is biochemical, Pseudomonas sp. As to conditions: free enzyme; 50 mM CHES, pH 9.0, 55 °C; 3,4-DHBA 1–200 μM.

In the case of `O=C(O)c1ccc(O)c(O)c1` [3,4-dihydroxybenzoic acid], the Km was 37 ± 15 µM.

What is called Km is the concentration of substrate that gives half-maximal velocity.

Values taken from paper PMC5056344, “Highly Efficient and Stable Novel NanoBiohybrid Catalyst to Avert 3,4-Dihydroxybenzoic Acid Pollutant in Water” (Scientific Reports, 2016).
